We go through one compound from patent US20010051652A1, “Method of treating paralysis of the extremities caused by cerebral infarction” (Ajinomoto Co., Inc., priority 1999, published 2001).

The test system of series [1] is male Wister rats. Description: Adduction/pronation of the left upper limb after middle cerebral artery ischemia-reperfusion. The class given is in vivo, rat. Conditions: for Adduction/pronation, during ischemia (rats affected/total): baseline before melatonin administration. The text has this:
(§1) Eight to ten-week-old male Wister rats weighing of 250 to 300 g were used. Under halothane anesthesia, a 24 G (24 gauge) plug was inserted from a right external carotid artery of each rat so as to arrive to a starting site of its middle cerebral artery of the circle of Willis through its internal carotid artery. Immediately, the anesthesia was stopped, and the rat was dehypnotized. It was confirmed that the rat rotated clockwise, had ischemia, and had paralysis of its left upper limb. After one hour, the plug was removed from the rat under halothane anesthesia, and the blood flow was thereby reperfused. In the melatonin administration group, 1 ml of a physiological saline solution containing 6 mg/kg of melatonin was injected using a probe into the stomach of each rat each day for 10 days starting 24 hours after the reperfusion. In the control group, 1 ml of a physiological saline solution was similarly injected into each rat. After 19 days, the presence of adduction/pronation of the left upper limb and the clockwise rotation were determined for each rat. To assess the adduction/pronation of the left upper limb, each rat was hung via its tail, and the movement of the left upper limb was observed. If the rat could not voluntarily move the left upper limb, and had paralysis of the left upper limb, the left upper limb was considered to show adduction/pronation. In an experiment similar to that as described in Example 1, the adduction/pronation of the left upper limb and the clockwise rotation were determined 11 days after the ischemic incidence.

Series [2] concerns male Wister rats. Description: Clockwise rotation after middle cerebral artery ischemia-reperfusion. The class given is in vivo, rat. The note with it: for Clockwise rotation, during ischemia (rats affected/total): baseline before melatonin administration.
From the text: as §1, with “clockwise rotation,” for “adduction/pronation of the left upper limb,”, “placed on a round plate 2 m in diameter for 5 minutes.” for “hung via its tail, and the movement of the left upper limb was observed.”, “rat” for “rat could not voluntarily move the left upper limb, and”, “it rotated clockwise.” for “the left upper limb was considered to show adduction/pronation.”

Series [3] has as its system male Wister rats. Nature of the series: Area of the cerebral infarcted lesion. Conditions: Example 3; rats of Example 2, after 11 days; section showing maximum lesion. Type of series: in vivo, rat. As for the experimental part:
Using the rats from the experiment of Example 2, the area of the cerebral infarcted lesion in each rat after 11 days was determined. The area of the cerebral infarcted lesion was determined by preparing a consecutive section of 50 μm from a cerebral infarcted region of about 3 mm and subjecting the section showing a maximum lesion to the NIH measurement program to determine the area of the maximum lesion.

The conditions of series [4]: cited from earlier work.
Series [5] relates to CAl hippocampal neurons. Conditions: intraperitoneally administered, especially prior to cerebral ischemia or during reperfusion; cited from earlier work.
Setting [6] is: Example 1, 6 mg/kg into the stomach each day for 10 days starting 24 hours after reperfusion.
The mark [7] stands for this setting: Example 2, experiment similar to Example 1.

`COc1ccc2[nH]cc(CCNC(C)=O)c2c1` [Melatonin, N-[2-(5-methoxy-1H-indol-3-yl)ethyl]acetamide]: the “Adduction/pronation, 19 days after ischemia (rats affected/total)” value in series [1] (setting [6]) was 1/4. Further, the “Adduction/pronation, during ischemia (rats affected/total)” value in series [1] (Example 1) is recorded as 4/4; in series [1] (Example 2), 7/7. Besides, the “Adduction/pronation, 11 days after ischemia (rats affected/total)” value in series [1] (setting [7]) was 3/7. In series [2] (setting [6]), the “Clockwise rotation, 19 days after ischemia (rats affected/total)” value is listed as 1/4. The “Clockwise rotation, during ischemia (rats affected/total)” value in series [2] (Example 1) is given as 4/4; in series [2] (Example 2), 7/7. Besides, in series [2] (setting [7]), the “Clockwise rotation, 11 days after ischemia (rats affected/total)” value is on record as 0/7. Further, in series [3], the “Area of the infarcted lesion, cerebral cortex” value was 5.47 mm^2. Further, in series [3], the “Area of the infarcted lesion, striatum” value is listed as 7.15 mm^2. Further, the “passage into the brain” value in series [4] (intravenously administered) was “pass into the brain”. The “passage through the blood-brain barrier” value in series [4] (orally administered) is reported as “passes through the blood-brain barrier”. In addition, in series [5], the “protection of CAl hippocampal neurons against ischemic injury” value was “protects CAl hippocampal neurons against ischemic injury”.
